Test results reported in patent publication US20240218022A1, “ANTI-VISTA MACROCYCLIC PEPTIDES AND COMPOSITIONS” (BRISTOL-MYERS SQUIBB COMPANY, priority 2022, published 2024).
Positions of bridges follow the written chain, without caps; N, C: chain ends. Non-standard residues stand in square brackets, D forms with d. Residues, ends and D or L forms follow the SMILES beside them. ξ: configuration not given here. *: point of attachment. Phe(4-COOH) = N[C@@H](Cc1ccc(C(=O)O)cc1)C(=O)O; Phe(2,4-F2) = N[C@@H](Cc1ccc(F)cc1F)C(=O)O; Phe(3-Br) = N[C@@H](Cc1cccc(Br)c1)C(=O)O; Phe(3-Me) = Cc1cccc(C[C@H](N)C(=O)O)c1; 2Nal = N[C@@H](Cc1ccc2ccccc2c1)C(=O)O; Phe(2-Me) = Cc1ccccc1C[C@H](N)C(=O)O; Gly(cPent) = N[C@H](C(=O)O)C1CCCC1; Tic = O=C(O)[C@@H]1Cc2ccccc2CN1; Aad = N[C@@H](CCCC(=O)O)C(=O)O; Cit = NC(=O)NCCC[C@H](N)C(=O)O; Gly(cPr) = N[C@H](C(=O)O)C1CC1; Ahp(2) = CCCCC[C@H](N)C(=O)O; NMeNle = CCCC[C@H](NC)C(=O)O; Tle = CC(C)(C)[C@H](N)C(=O)O; Pip = O=C(O)[C@@H]1CCCCN1; Carboxymethyl = O=C(O)C*; NHexGly = CCCCCCNCC(=O)O; NMeA = CN[C@@H](C)C(=O)O; Nle = CCCC[C@H](N)C(=O)O; ξS = NC(CO)C(=O)O

Biological target: T1, mouse VISTA (mVISTA) (Mus musculus, UniProt Q9D659)
T1 construct: expressed in transfected cells; host or cells: Human embryonic kidney 293T cells
T1 sequence (Q9D659 33-308): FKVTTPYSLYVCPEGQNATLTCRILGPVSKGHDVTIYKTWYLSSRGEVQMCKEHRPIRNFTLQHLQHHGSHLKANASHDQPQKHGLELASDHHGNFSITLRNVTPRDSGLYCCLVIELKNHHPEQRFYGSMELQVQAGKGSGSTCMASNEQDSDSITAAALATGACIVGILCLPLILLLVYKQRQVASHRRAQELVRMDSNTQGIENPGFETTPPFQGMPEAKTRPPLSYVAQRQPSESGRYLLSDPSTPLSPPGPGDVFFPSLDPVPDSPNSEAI
Experiment: Cell-Based Binding High-Content Assay For mVISTA (HC CBA mVISTA)
Settings: read-out: HC CBA mVISTA IC50
Summary of the method: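 mVISTA-293T, 4,000 cells/well; cpd ± washout step; biotin-peptide 2 nM final, 30 min RT; SA-Alexa 647 30 min; formaldehyde/Hoechst fix; HCS imaging; 4PL IC50.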

Structure (SMILES) | IC50
CCCCCCN1CC(=O)N[C@@H](Cc2ccc(O)cc2)C(=O)N[C@@H](CCCC)C(=O)N[C@@H](CC(N)=O)C(=O)N[C@@H](CCCNC(N)=O)C(=O)N(C)[C@@H](CCCC)C(=O)N[C@@H](CCCCC)C(=O)N(C)[C@@H](C)C(=O)N[C@@H](C(C)C)C(=O)N[C@@H](CO)C(=O)N[C@H](C(=O)NCC(N)=O)CSCC(=O)N[C@@H](Cc2ccccc2)C(=O)N[C@@H](Cc2c[nH]c3ccccc23)C(=O)N[C@@H](CC(=O)O)C1=O [compound 1144] ({CH2CO}-FWD[NHexGly]Y[Nle]N[Cit][NMeNle][Ahp(2)][NMeA]VSCG-NH2; thioether N-14) | 0.0158 µM
CCCCCCN1CC(=O)N[C@@H](Cc2ccc(O)cc2)C(=O)N[C@@H](CCCC)C(=O)N[C@@H](CC(N)=O)C(=O)N[C@@H](CCCNC(=N)N)C(=O)N(C)[C@@H](CCCC)C(=O)N[C@@H](CCCCC)C(=O)N2CCCC[C@H]2C(=O)N[C@@H](C(C)C)C(=O)N[C@@H](CO)C(=O)N[C@H](C(=O)NCC(N)=O)CSCC(=O)N[C@@H](Cc2ccccc2)C(=O)N[C@@H](Cc2c[nH]c3ccccc23)C(=O)N[C@@H](CC(=O)O)C1=O [compound 1145] ({CH2CO}-FWD[NHexGly]Y[Nle]NR[NMeNle][Ahp(2)][Pip]VSCG-NH2; thioether N-14) | 0.0286 µM
CCCCCCN1CC(=O)N[C@@H](Cc2ccc(O)cc2)C(=O)N[C@@H](CCCC)C(=O)N[C@@H](CC(N)=O)C(=O)N[C@@H](CCCNC(N)=O)C(=O)N(C)[C@@H](CCCC)C(=O)N[C@@H](CCCCC)C(=O)N2CCCC[C@H]2C(=O)N[C@@H](C(C)C)C(=O)N[C@@H](CO)C(=O)N[C@H](C(=O)NCC(N)=O)CSCC(=O)N[C@@H](Cc2ccccc2)C(=O)N[C@@H](Cc2c[nH]c3ccccc23)C(=O)N[C@@H](CC(=O)O)C1=O [compound 1146] ({CH2CO}-FWD[NHexGly]Y[Nle]N[Cit][NMeNle][Ahp(2)][Pip]VSCG-NH2; thioether N-14) | 0.0217 µM
CCCCCCN1CC(=O)N[C@@H](Cc2ccc(O)cc2)C(=O)N[C@@H](CCCCC)C(=O)NCC(=O)N[C@@H](CCCNC(=N)N)C(=O)N[C@@H](CC(C)C)C(=O)N[C@@H](CCCCC)C(=O)N2CCCC[C@H]2C(=O)N[C@@H](C(C)C)C(=O)N[C@@H](CO)C(=O)N[C@H](C(=O)NCC(N)=O)CSCC(=O)N[C@@H](Cc2ccccc2)C(=O)N[C@@H](Cc2ccc(O)cc2)C(=O)N[C@@H](CC(=O)O)C1=O [compound 1155] ({CH2CO}-FYD[NHexGly]Y[Ahp(2)]GRL[Ahp(2)][Pip]VSCG-NH2; thioether N-14) | 0.024 µM
CCCCCCN1CC(=O)N[C@@H](Cc2ccc(O)cc2)C(=O)N[C@@H](CC(C)C)C(=O)NCC(=O)N[C@@H](CCCNC(=N)N)C(=O)N2Cc3ccccc3C[C@H]2C(=O)N[C@@H](CCCCC)C(=O)N2CCC[C@H]2C(=O)N[C@@H](C(C)C)C(=O)N[C@@H](CO)C(=O)N[C@H](C(=O)NCC(N)=O)CSCC(=O)N[C@@H](Cc2ccccc2)C(=O)N[C@@H](Cc2ccc(O)cc2)C(=O)N[C@@H](CC(=O)O)C1=O [compound 1158] ({CH2CO}-FYD[NHexGly]YLGR[Tic][Ahp(2)]PVSCG-NH2; thioether N-14) | 0.0111 µM
CCCCCCN1CC(=O)N[C@@H](Cc2ccc(O)cc2)C(=O)N[C@@H](Cc2ccc(C(=O)O)cc2)C(=O)N[C@@H](CC(N)=O)C(=O)N[C@@H](CCCNC(=N)N)C(=O)N(C)[C@@H](CCCC)C(=O)N[C@@H](CCCCC)C(=O)N2CCC[C@H]2C(=O)N[C@@H](C(C)(C)C)C(=O)N[C@@H](CC(=O)O)C(=O)N[C@H](C(N)=O)CSCC(=O)N[C@@H](Cc2ccccc2)C(=O)N[C@@H](Cc2c[nH]c3ccccc23)C(=O)N[C@@H](CC(=O)O)C1=O [compound 1167] ({CH2CO}-FWD[NHexGly]Y[Phe(4-COOH)]NR[NMeNle][Ahp(2)]P[Tle]DC-NH2; thioether N-14) | 0.0388 µM
CCCCCCN1CC(=O)N[C@@H](Cc2ccc(O)cc2)C(=O)N[C@@H](Cc2ccc(OCC(=O)O)cc2)C(=O)N[C@@H](CC(N)=O)C(=O)N[C@@H](CCCNC(=N)N)C(=O)N(C)[C@@H](CCCC)C(=O)N[C@@H](CCCCC)C(=O)N2CCC[C@H]2C(=O)N[C@@H](C(C)(C)C)C(=O)N[C@@H](CC(=O)O)C(=O)N[C@H](C(N)=O)CSCC(=O)N[C@@H](Cc2ccccc2)C(=O)N[C@@H](Cc2c[nH]c3ccccc23)C(=O)N[C@@H](CC(=O)O)C1=O [compound 1168] ({CH2CO}-FWD[NHexGly]YY(Carboxymethyl)NR[NMeNle][Ahp(2)]P[Tle]DC-NH2; thioether N-14) | 0.0262 µM
CCCCCCN1CC(=O)N[C@@H](Cc2ccc(O)cc2)C(=O)N[C@@H](CCCC(=O)O)C(=O)N[C@@H](CC(N)=O)C(=O)N[C@@H](CCCNC(=N)N)C(=O)N(C)[C@@H](CCCC)C(=O)N[C@@H](CCCCC)C(=O)N2CCC[C@H]2C(=O)N[C@@H](C(C)(C)C)C(=O)N[C@@H](CC(=O)O)C(=O)N[C@H](C(N)=O)CSCC(=O)N[C@@H](Cc2ccccc2)C(=O)N[C@@H](Cc2c[nH]c3ccccc23)C(=O)N[C@@H](CC(=O)O)C1=O [compound 1169] ({CH2CO}-FWD[NHexGly]Y[Aad]NR[NMeNle][Ahp(2)]P[Tle]DC-NH2; thioether N-14) | 0.0384 µM
CCCCCCN1CC(=O)N[C@@H](Cc2ccc(O)cc2)C(=O)N[C@@H](CCCC)C(=O)N[C@@H](CC(N)=O)C(=O)N[C@@H](CCCNC(=N)N)C(=O)N[C@@H](CC(C)C)C(=O)N[C@@H](C2CCCC2)C(=O)N2CCC[C@H]2C(=O)N[C@@H](C(C)C)C(=O)N[C@@H](CC(=O)O)C(=O)N[C@H](C(=O)NCC(=O)O)CSCC(=O)N[C@@H](Cc2ccc3ccccc3c2)C(=O)N[C@@H](Cc2c[nH]c3ccccc23)C(=O)N[C@@H](CC(=O)O)C1=O [compound 1181] ({CH2CO}-[2Nal]WD[NHexGly]Y[Nle]NRL[Gly(cPent)]PVDCG-OH; thioether N-14) | 0.0159 µM
CCCCCCN1CC(=O)N[C@@H](Cc2ccc(O)cc2)C(=O)N[C@@H](CCCC)C(=O)N[C@@H](CC(N)=O)C(=O)N[C@@H](CCCNC(=N)N)C(=O)N[C@@H](CC(C)C)C(=O)N[C@@H](C2CC2)C(=O)N2CCC[C@H]2C(=O)N[C@@H](C(C)C)C(=O)N[C@@H](CC(=O)O)C(=O)N[C@H](C(=O)NCC(=O)O)CSCC(=O)N[C@@H](Cc2ccc3ccccc3c2)C(=O)N[C@@H](Cc2c[nH]c3ccccc23)C(=O)N[C@@H](CC(=O)O)C1=O [compound 1182] ({CH2CO}-[2Nal]WD[NHexGly]Y[Nle]NRL[Gly(cPr)]PVDCG-OH; thioether N-14) | 0.0236 µM
CCCCCCN1CC(=O)N[C@@H](Cc2ccc(O)cc2)C(=O)N[C@@H](CCCC)C(=O)N[C@@H](CC(N)=O)C(=O)N[C@@H](CCCNC(=N)N)C(=O)N(C)[C@@H](CCCC)C(=O)N[C@@H](CCCCC)C(=O)N2CCC[C@H]2C(=O)N[C@@H](C(C)C)C(=O)N[C@@H](CC(=O)O)C(=O)N[C@H](C(=O)NCC(=O)O)CSCC(=O)N[C@@H](Cc2ccc3ccccc3c2)C(=O)N[C@@H](Cc2cccc(C)c2)C(=O)N[C@@H](CC(=O)O)C1=O [compound 1200] ({CH2CO}-[2Nal][Phe(3-Me)]D[NHexGly]Y[Nle]NR[NMeNle][Ahp(2)]PVDCG-OH; thioether N-14) | 0.0448 µM
CCCCCCN1CC(=O)N[C@@H](Cc2ccc(O)cc2)C(=O)N[C@@H](CCCCC)C(=O)N[C@@H](CC(N)=O)C(=O)N[C@@H](CCCNC(=N)N)C(=O)N(C)[C@@H](CCCC)C(=O)N[C@@H](CCCCC)C(=O)N2CCC[C@H]2C(=O)N[C@@H](C(C)C)C(=O)N[C@@H](CC(=O)O)C(=O)N[C@H](C(=O)NCC(=O)O)CSCC(=O)N[C@@H](Cc2ccc3ccccc3c2)C(=O)N[C@@H](Cc2ccc(F)cc2F)C(=O)N[C@@H](CC(=O)O)C1=O [compound 1201] ({CH2CO}-[2Nal][Phe(2,4-F2)]D[NHexGly]Y[Ahp(2)]NR[NMeNle][Ahp(2)]PVDCG-OH; thioether N-14) | 0.0119 µM
CCCCCCN1CC(=O)N[C@@H](Cc2ccc(O)cc2)C(=O)N[C@@H](CCCCC)C(=O)N[C@@H](CC(N)=O)C(=O)N[C@@H](CCCNC(=N)N)C(=O)N(C)[C@@H](CCCC)C(=O)N[C@@H](CCCCC)C(=O)N2CCC[C@H]2C(=O)N[C@@H](C(C)C)C(=O)N[C@@H](CC(=O)O)C(=O)N[C@H](C(=O)NC(CO)C(=O)O)CSCC(=O)N[C@@H](Cc2ccc3ccccc3c2)C(=O)N[C@@H](Cc2ccc(F)cc2F)C(=O)N[C@@H](CC(=O)O)C1=O (stereo partly drawn) [compound 1202] ({CH2CO}-[2Nal][Phe(2,4-F2)]D[NHexGly]Y[Ahp(2)]NR[NMeNle][Ahp(2)]PVDC[ξS]-OH; thioether N-14) | 0.0161 µM
CCCCCCN1CC(=O)N[C@@H](Cc2ccc(O)cc2)C(=O)N[C@@H](CC(C)C)C(=O)N[C@@H](CC(N)=O)C(=O)N[C@@H](CCCNC(=N)N)C(=O)N(C)[C@@H](CCCC)C(=O)N[C@@H](CCCCC)C(=O)N2CCC[C@H]2C(=O)N[C@@H](C(C)(C)C)C(=O)N[C@@H](CO)C(=O)N[C@H](C(=O)NCC(N)=O)CSCC(=O)N[C@@H](Cc2ccccc2)C(=O)N[C@@H](Cc2cccc(Br)c2)C(=O)N[C@@H](CC(=O)O)C1=O [compound 1203] ({CH2CO}-F[Phe(3-Br)]D[NHexGly]YLNR[NMeNle][Ahp(2)]P[Tle]SCG-NH2; thioether N-14) | 0.0507 µM
CCCCCCN1CC(=O)N[C@@H](Cc2ccc(O)cc2)C(=O)N[C@@H](CC(C)C)C(=O)N[C@@H](CC(N)=O)C(=O)N[C@@H](CCCNC(=N)N)C(=O)N(C)[C@@H](CCCC)C(=O)N[C@@H](CCCCC)C(=O)N2CCC[C@H]2C(=O)N[C@@H](C(C)C)C(=O)N[C@@H](CO)C(=O)N[C@H](C(=O)NCC(N)=O)CSCC(=O)N[C@@H](Cc2ccccc2C)C(=O)N[C@@H](Cc2ccc(O)cc2)C(=O)N[C@@H](CC(=O)O)C1=O [compound 1204] ({CH2CO}-[Phe(2-Me)]YD[NHexGly]YLNR[NMeNle][Ahp(2)]PVSCG-NH2; thioether N-14) | 0.0184 µM
